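A five-concentration, 48-hour dose response in 96-well plates underlies each endpoint, interpolated linearly between surrounding concentrations. Abbreviation: GI50, concentration required for 50% inhibition of growth.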 Active and inactive are the calls of the source. Cut-off read from the data, not from the text of the source: active = GI50 up to about 1.1 µM and inactive = higher.
Assays:
Experiment in all cases: NCI-60 cell line screen, 48 h
DLD-1 = tested on: DLD-1
KM-20L2 = tested on: KM-20L2
HOP-18 = tested on: HOP-18
LXFL 529 = tested on: LXFL 529
SNB-78 = tested on: SNB-78
DMS-114 = tested on: DMS-114
XF498 = tested on: XF498
DMS-273 = tested on: DMS-273
RXF 631 = tested on: RXF 631

SMILES	GI50 (DLD-1)	GI50 (KM-20L2)	GI50 (HOP-18)	GI50 (LXFL 529)	GI50 (SNB-78)	GI50 (DMS-114)	GI50 (XF498)	GI50 (DMS-273)	GI50 (RXF 631)
COc1ccc(Cl)cc1NC(=O)c1cccc([N+](=O)[O-])c1O	8.95 µM (inactive)	15 µM (inactive)	2.51 µM (inactive)	8.43 µM (inactive)	19.4 µM (inactive)				
CS(=O)(=O)CC1=Nc2nnc(CCCCCCCc3nnc4n3C(=O)C(CS(C)(=O)=O)=N4)n2C1=O		> 100 µM (inactive)	> 100 µM (inactive)	> 100 µM (inactive)		> 100 µM (inactive)	> 100 µM (inactive)		
COc1cc2cccc(NC(=O)c3cc(OC)c(OC)c(OC)c3Br)c2cc1OC	24.8 µM (inactive)	25.7 µM (inactive)	20.6 µM (inactive)	2.52 µM (inactive)	17.1 µM (inactive)	3.12 µM (inactive)	2.4 µM (inactive)		
COc1ccc2c(c1)C(=O)Cc1ccccc1CC2	> 100 µM (inactive)	> 100 µM (inactive)	> 100 µM (inactive)	> 100 µM (inactive)	> 100 µM (inactive)	> 100 µM (inactive)	> 100 µM (inactive)	> 100 µM (inactive)	
CC(=O)n1c2c(c(=O)n1-c1ccccc1)[S+]([O-])CCC2 (centres undefined)	48 µM (inactive)	> 71.6 µM (inactive)		28.7 µM (inactive)	85.9 µM (inactive)	35.9 µM (inactive)	> 76.7 µM (inactive)	23.2 µM (inactive)	97.1 µM (inactive)
CCOC(=O)C1Cc2c(ccc(OC)c2OC)C(=O)C1N (centres undefined)	> 100 µM (inactive)	> 100 µM (inactive)	97.5 µM (inactive)	94.8 µM (inactive)	> 100 µM (inactive)	> 100 µM (inactive)	> 100 µM (inactive)	> 100 µM (inactive)	> 100 µM (inactive)
CC(=O)CN(Cc1cc(C)c2c(c1)c1ccccc1n2Cc1ccccc1)S(=O)(=O)c1ccc(C)cc1	> 100 µM (inactive)		> 100 µM (inactive)	> 100 µM (inactive)	> 100 µM (inactive)	> 100 µM (inactive)	> 100 µM (inactive)	> 100 µM (inactive)	> 100 µM (inactive)
COc1cccc(N2C(=O)C3C4C=C5c6ccccc6N(c6ccccc6)C5(C3C2=O)[C@H]2C(=O)N(c3cccc(OC)c3)C(=O)[C@@H]42)c1 (some centres undefined)	> 100 µM (inactive)	> 100 µM (inactive)	> 100 µM (inactive)	> 100 µM (inactive)	> 100 µM (inactive)	> 100 µM (inactive)	> 100 µM (inactive)	> 100 µM (inactive)	> 100 µM (inactive)
COc1cccc(/C=N/NC(N)=O)c1O		> 100 µM (inactive)							
Cc1ccc(-n2c(C)nc3c2C(=O)c2ccccc2C3=O)cc1	9.33 µM (inactive)	18.3 µM (inactive)		9.84 µM (inactive)	> 100 µM (inactive)		50.5 µM (inactive)	9.86 µM (inactive)	
CN1C2(c3ccccc3)C(C(=O)c3ccccc3)=C(C(=O)c3ccccc3)C1(c1ccccc1)c1c(-c3ccccc3)sc(-c3ccccc3)c12	> 100 µM (inactive)	> 100 µM (inactive)		> 100 µM (inactive)	> 100 µM (inactive)	> 100 µM (inactive)		> 100 µM (inactive)	
Cc1nc2ccccc2c(=O)n1/N=C(\N=N\c1ccccc1)c1ccccc1Cl	42.6 µM (inactive)	65.5 µM (inactive)	13.6 µM (inactive)	24.3 µM (inactive)	30.2 µM (inactive)	26 µM (inactive)	18.7 µM (inactive)	41 µM (inactive)	> 71.4 µM (inactive)
C[N+](C)(C)CC(=O)N/N=C/c1oc(-c2c(O)ccc3ccccc23)c(-c2c(O)ccc3ccccc23)c1[N+](=O)[O-]	14.1 µM (inactive)	3.1 µM (inactive)	15.9 µM (inactive)	14.8 µM (inactive)			20.6 µM (inactive)		
CC(=O)NC(CCCCNC(=O)N(CCCl)N=O)C(=O)NCc1ccccc1 (centres undefined)	> 100 µM (inactive)	> 100 µM (inactive)	> 100 µM (inactive)	> 100 µM (inactive)		> 100 µM (inactive)	> 100 µM (inactive)	> 100 µM (inactive)	> 100 µM (inactive)
C=C1C(=O)C23[C@H](O)C1CC[C@H]2[C@]12COC3(O)[C@@H](O)[C@@H]1C(C)(C)CC[C@@H]2O	11.3 µM (inactive)	13.7 µM (inactive)	12.2 µM (inactive)	1.27 µM (inactive)	3.44 µM (inactive)	7.38 µM (inactive)	3.46 µM (inactive)	13.6 µM (inactive)	10.1 µM (inactive)
CC(=O)Nc1ccc(/C=C(\NC(=O)c2ccccc2)c2nc3ccc4c(c3[nH]2)C(=O)c2ccccc2C4=O)cc1	13.8 µM (inactive)	46.5 µM (inactive)	11 µM (inactive)	28.8 µM (inactive)	58.9 µM (inactive)	17.9 µM (inactive)	84.1 µM (inactive)	32.7 µM (inactive)	
COc1ccc(NC(=O)CSc2nnc(-c3ccc(NC(C)=O)cc3)o2)cc1	19.3 µM (inactive)	19.5 µM (inactive)	19.9 µM (inactive)	13.6 µM (inactive)	13.8 µM (inactive)	5.6 µM (inactive)		19.3 µM (inactive)	
O=C1CC2C=CC1C2CO (centres undefined)	> 100 µM (inactive)	> 100 µM (inactive)	> 100 µM (inactive)	> 100 µM (inactive)	> 100 µM (inactive)	> 100 µM (inactive)		> 100 µM (inactive)	
CC1=C(C)CC2(SC1)C(=O)c1ccccc1C2=O	> 100 µM (inactive)	> 100 µM (inactive)	> 100 µM (inactive)	> 100 µM (inactive)	> 100 µM (inactive)	> 100 µM (inactive)		> 100 µM (inactive)	> 100 µM (inactive)
CCCCCCCCCCCCCCC1OC(=O)c2ccccc21 (centres undefined)	71.4 µM (inactive)	42.9 µM (inactive)	> 100 µM (inactive)	77.1 µM (inactive)	> 100 µM (inactive)	24 µM (inactive)			> 100 µM (inactive)
COc1ccc(-c2ccccc2)c2[nH]c3c(c12)CCNC3=O	> 100 µM (inactive)	> 100 µM (inactive)		> 100 µM (inactive)	> 100 µM (inactive)			> 100 µM (inactive)	
N#Cc1c(-c2ccccc2)cc(-c2cccs2)c(C#N)c1N	> 100 µM (inactive)	> 100 µM (inactive)	0.0134 µM (active)	> 100 µM (inactive)	> 100 µM (inactive)	> 10 µM (inactive)	> 100 µM (inactive)	> 100 µM (inactive)	
COc1cc2c(cc1O)[C@H](C)C(c1ccc(OC)c(OC)c1)O2 (some centres undefined)	8.11 µM (inactive)	18.8 µM (inactive)	4.36 µM (inactive)	9.35 µM (inactive)	17.3 µM (inactive)	3.56 µM (inactive)	10.1 µM (inactive)	3.84 µM (inactive)	
COc1ccccc1CCc1cc(OC)c(OC)c(OC)c1	61.5 µM (inactive)	55.8 µM (inactive)	> 100 µM (inactive)	28.4 µM (inactive)	43 µM (inactive)	41.6 µM (inactive)	35.9 µM (inactive)	39.6 µM (inactive)	
Cc1cc2c(cc1C)[n+]([O-])c(C(=O)/C=C/c1ccccc1[N+](=O)[O-])c(C)[n+]2[O-]	77.6 µM (inactive)	> 100 µM (inactive)	38.5 µM (inactive)	> 91.6 µM (inactive)	27 µM (inactive)	17.8 µM (inactive)	22.3 µM (inactive)	34.1 µM (inactive)	
CCc1ccccc1NC(=O)C(=O)C1C(=O)N(c2ccccc2)N=C1N (centres undefined)	> 100 µM (inactive)	> 100 µM (inactive)	> 100 µM (inactive)	> 100 µM (inactive)	> 100 µM (inactive)	> 100 µM (inactive)	> 100 µM (inactive)	> 100 µM (inactive)	> 100 µM (inactive)
COC(=O)/C(=C/c1ccc(OC)cc1)c1cc(OC)c(OC)c(OC)c1	2.61 µM (inactive)	1.12 µM (inactive)	> 100 µM (inactive)	3.73 µM (inactive)	5.02 µM (inactive)	2.96 µM (inactive)	4.89 µM (inactive)	0.746 µM (active)	

— ChEMBL document CHEMBL1201862, “PubChem BioAssay data set” (2004)
